In patent US20100305113A1, “Substituted Imidazopyridazines as Lipid Kinase Inhibitors” (priority 2007, published 2010):

Legend:
Format in all cases: biochemical
Conditions in all cases: Enzymatic Data
PI3K beta = target: T1, PI3K beta (Homo sapiens, UniProt P42338); experiment: PI3K beta enzymatic assay (Kinase-Glo luminescence)
T1 construct: for the full-length p110-b subunit are generated and fused by overlapping PCR; p85(iSH2) fusion partner (same polypeptide; see partner chain) (N); Gly linker (N); His tag (C); made in house; host or cells: baculovirus; Tn5 (Trichoplusia ni) or TiniPro insect cells
Experimental: (§1) In a more preferred assay, the kinase reaction is performed in a final volume of 10 μL per well of a low volume non binding CORNING, 384 well black plate (Cat. No. #3676). The final concentrations of ATP and phosphatidyl inositol (PI) in the assay are 1 μM and 10 μg/mL respectively. The reaction is started by the addition of ATP.
(§2) The components of the assay are added per well as follows:
(§3) 50 nL test compounds in 90% DMSO per well, in columns 1-20, 8 concentrations (⅓ and 1/3.33 serial dilution step) in single. • Low control: 50 nL of 90% DMSO in half the wells of columns 23-24 (0.45% in final). • High control: 50 nL of reference compound (e.g. compound of Example 7 in WO 2006/122806, incorporated by reference herein that regard) in the other half of columns 23-24 (2.5 μM in final). • Standard: 50 nL of reference compound as just mentioned diluted as the test compounds in columns 21-22 • 20 mL ‘buffer’ are prepared per assay: • 200 μL of 1M TRIS HCl pH7.5 (10 mM in final) • 60 μL of 1M MgCl2 (3 mM in final) • 500 μL of 2M NaCl (50 mM in final) • 100 μL of 10% CHAPS (0.05% in final) • 200 μL of 100 mM DTT (1 mM in final) • 18.94 mL of nanopure water • 10 mL ‘PI’ are prepared per assay: • 200 μL of 1 mg/ml L-alpha-Phosphatidylinositol (Liver Bovine, Avanti Polar Lipids Cat. No. 840042C MW=909.12) prepared in 3% OctylGlucoside ([…]) • 9.8 mL of ‘buffer’ • 10 mL ‘ATP’ are prepared per assay: • 6.7 μL of 3 mM stock of ATP giving a final concentration of 1 μM per well • 10 mL of ‘buffer’ • 2.5 mL of each PI3K construct are prepared per assay in ‘PI’ with the following final concentration: • 10 nM PI3K alfa BV-1075 • 25 nM beta BV-949 • 10 nM delta BV-1060 • 150 nM gamma BV-950 • 5 μL of ‘PI/PI3K’ are added per well. • 5 μl ‘ATP’ are added per well to start the reaction. • The plates are then incubated at room temperature for 60 minutes (alfa, beta, delta) or 120 minutes (gamma). • The reaction is terminated by the addition of 10 μL Kinase-Glo (Promega Cat. No. #6714). • The assay plates are read after 10 minutes in Synergy 2 reader (BioTek, Vermont USA) with an integration time of 100 milliseconds and sensitivity set to 191. • Output: The High control is around 60′000 counts and the Low control is 30′000 or lower • This luminescence assay gives a useful Z′ ratio between 0.4 and 0.7 The Z′ value is a universal measurement of the robustness of an assay. A Z′ between 0.5 and 1.0 is considered an excellent assay.
PI3Kβ BV-949 p85(iSH2)-Gly linker-p110b (Full-Length)-C-Term His Tag
(§4) IC50 is determined by a four parameter curve fitting routine that comes aloneg with “excel fit”. A 4 Parameter logistic equation is used to calculate IC50 values (IDBS XLfit) of the percentage inhibition of each compound at 8 concentrations (usually 10, 3.0, 1.0, 0.3, 0.1, 0.030, 0.010 and 0.003 μM). Alternatively, IC50 values are calculated using idbsXLfit model 204, which is a 4 parameter logistic model.

PI3K alfa = target: T2, PI3K alfa (Homo sapiens, UniProt P42336); experiment: PI3K alfa enzymatic assay (Kinase-Glo luminescence)
T2 construct: p85(iSH2) fusion partner (same polypeptide; see partner chain) (N); 12x Gly linker (N); His tag (C); made in house; host or cells: baculovirus; Tn5 (Trichoplusia ni) or TiniPro insect cells
Experimental: as §1, §2, §3, §4

PI3K gamma = target: T3, PI3K gamma (Homo sapiens, UniProt P48736); experiment: PI3K gamma enzymatic assay (Kinase-Glo luminescence)
T3 construct: His tag (C); made in house; host or cells: construct from Roger Williams lab (MRC LMB); baculovirus (pVL1393); Tn5 (Trichoplusia ni) or TiniPro insect cells
Experimental: as §1, §2, §3, §4

PI3K delta = target: T4, PI3K delta (Homo sapiens, UniProt O00329); experiment: PI3K delta enzymatic assay (Kinase-Glo luminescence)
T4 construct: for the full-length p110-d subunit are generated and fused by overlapping PCR; p85(iSH2) fusion partner (same polypeptide; see partner chain) (N); Gly linker (N); His tag (C); made in house; host or cells: baculovirus; Tn5 (Trichoplusia ni) or TiniPro insect cells
Experimental: as §1, §2, §3
PI3Kδ BV-1060 p85(iSH2)-Gly Linker-p110d (Full-Length)-C-term His Tact
as §4

T4 sequence (O00329 with tags, fused parts or gaps limits assumed): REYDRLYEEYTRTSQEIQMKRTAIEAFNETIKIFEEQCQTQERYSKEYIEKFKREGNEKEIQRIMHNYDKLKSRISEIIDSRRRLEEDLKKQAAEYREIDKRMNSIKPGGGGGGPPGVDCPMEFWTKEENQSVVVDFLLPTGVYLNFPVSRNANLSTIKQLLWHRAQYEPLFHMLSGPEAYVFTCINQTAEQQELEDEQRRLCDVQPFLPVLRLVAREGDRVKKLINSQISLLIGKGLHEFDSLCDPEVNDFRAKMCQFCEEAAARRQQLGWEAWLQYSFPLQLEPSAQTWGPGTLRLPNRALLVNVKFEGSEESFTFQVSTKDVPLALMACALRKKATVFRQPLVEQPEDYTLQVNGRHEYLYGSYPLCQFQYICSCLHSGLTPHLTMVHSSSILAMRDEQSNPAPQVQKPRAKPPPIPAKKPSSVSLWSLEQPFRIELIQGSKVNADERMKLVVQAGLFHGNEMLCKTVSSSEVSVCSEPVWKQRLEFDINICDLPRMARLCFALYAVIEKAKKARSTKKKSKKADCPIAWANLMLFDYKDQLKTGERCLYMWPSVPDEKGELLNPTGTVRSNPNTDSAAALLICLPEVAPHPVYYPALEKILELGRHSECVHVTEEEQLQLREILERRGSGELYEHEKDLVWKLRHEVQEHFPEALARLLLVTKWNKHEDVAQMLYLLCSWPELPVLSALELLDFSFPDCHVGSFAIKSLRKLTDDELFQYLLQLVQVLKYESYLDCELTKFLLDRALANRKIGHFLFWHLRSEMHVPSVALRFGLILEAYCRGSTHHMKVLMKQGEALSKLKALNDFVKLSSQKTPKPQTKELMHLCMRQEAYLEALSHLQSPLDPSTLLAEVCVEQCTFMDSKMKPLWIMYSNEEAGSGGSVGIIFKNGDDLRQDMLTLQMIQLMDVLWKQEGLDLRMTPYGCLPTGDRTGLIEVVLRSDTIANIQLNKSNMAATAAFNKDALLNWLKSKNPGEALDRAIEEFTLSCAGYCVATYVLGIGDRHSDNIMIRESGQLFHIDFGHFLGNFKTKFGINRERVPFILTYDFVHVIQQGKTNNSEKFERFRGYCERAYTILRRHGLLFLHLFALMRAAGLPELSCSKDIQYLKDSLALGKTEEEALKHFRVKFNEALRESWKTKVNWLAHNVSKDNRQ
T3 sequence (P48736 144-1102 limits assumed): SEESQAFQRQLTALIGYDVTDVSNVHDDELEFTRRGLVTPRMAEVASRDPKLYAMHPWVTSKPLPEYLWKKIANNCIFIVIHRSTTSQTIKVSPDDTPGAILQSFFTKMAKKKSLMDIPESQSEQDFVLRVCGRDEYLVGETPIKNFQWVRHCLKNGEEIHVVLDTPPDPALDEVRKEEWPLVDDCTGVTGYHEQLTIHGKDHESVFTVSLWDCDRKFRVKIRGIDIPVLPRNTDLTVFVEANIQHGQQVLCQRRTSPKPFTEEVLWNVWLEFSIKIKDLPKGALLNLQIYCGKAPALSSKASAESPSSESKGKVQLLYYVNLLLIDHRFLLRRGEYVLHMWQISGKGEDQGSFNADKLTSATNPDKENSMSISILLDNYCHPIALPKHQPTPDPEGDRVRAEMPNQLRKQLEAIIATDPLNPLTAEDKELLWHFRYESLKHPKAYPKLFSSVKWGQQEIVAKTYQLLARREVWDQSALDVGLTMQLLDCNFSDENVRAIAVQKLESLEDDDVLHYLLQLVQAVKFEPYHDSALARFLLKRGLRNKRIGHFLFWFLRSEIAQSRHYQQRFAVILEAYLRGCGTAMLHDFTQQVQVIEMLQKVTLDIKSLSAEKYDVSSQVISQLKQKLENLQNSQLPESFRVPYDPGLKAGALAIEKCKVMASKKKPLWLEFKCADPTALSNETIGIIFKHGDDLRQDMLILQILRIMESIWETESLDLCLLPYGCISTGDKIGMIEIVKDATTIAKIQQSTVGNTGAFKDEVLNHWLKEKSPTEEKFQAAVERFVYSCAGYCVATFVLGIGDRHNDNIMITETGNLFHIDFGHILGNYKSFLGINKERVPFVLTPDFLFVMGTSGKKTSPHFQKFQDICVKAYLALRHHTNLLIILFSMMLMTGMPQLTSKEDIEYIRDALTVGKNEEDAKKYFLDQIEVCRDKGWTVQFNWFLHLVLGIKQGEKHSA
T1 sequence (P42338 with tags, fused parts or gaps limits assumed): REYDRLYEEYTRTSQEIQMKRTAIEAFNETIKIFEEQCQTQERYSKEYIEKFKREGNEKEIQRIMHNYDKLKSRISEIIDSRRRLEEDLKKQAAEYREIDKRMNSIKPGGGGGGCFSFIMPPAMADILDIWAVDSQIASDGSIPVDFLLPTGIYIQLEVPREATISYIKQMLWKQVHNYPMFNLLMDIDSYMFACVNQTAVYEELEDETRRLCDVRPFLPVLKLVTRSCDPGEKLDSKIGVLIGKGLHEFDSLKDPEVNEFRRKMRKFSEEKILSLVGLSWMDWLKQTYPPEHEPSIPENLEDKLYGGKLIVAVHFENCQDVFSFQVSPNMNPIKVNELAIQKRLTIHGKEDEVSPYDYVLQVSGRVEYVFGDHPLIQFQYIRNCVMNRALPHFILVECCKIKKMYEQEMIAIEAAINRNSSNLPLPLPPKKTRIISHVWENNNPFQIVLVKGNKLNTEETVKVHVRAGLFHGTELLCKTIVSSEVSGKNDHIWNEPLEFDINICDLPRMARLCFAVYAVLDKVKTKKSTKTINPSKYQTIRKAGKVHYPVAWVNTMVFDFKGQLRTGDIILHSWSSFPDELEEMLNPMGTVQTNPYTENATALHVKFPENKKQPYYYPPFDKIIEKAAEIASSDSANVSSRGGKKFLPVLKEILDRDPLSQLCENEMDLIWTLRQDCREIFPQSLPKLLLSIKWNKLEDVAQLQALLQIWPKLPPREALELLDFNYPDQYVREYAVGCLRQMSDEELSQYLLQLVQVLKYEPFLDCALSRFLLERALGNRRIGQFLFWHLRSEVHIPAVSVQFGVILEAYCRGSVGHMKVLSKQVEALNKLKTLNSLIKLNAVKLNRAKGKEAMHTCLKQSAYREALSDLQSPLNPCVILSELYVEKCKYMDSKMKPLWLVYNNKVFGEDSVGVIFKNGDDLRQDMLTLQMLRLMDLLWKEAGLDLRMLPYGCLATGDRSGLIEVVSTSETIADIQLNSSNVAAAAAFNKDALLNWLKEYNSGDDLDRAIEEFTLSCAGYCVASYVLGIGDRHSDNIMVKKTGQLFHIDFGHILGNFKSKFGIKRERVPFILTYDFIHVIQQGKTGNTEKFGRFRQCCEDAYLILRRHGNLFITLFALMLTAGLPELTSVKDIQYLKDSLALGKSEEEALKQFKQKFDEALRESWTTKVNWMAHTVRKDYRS
T2 sequence (P42336 with tags, fused parts or gaps limits assumed): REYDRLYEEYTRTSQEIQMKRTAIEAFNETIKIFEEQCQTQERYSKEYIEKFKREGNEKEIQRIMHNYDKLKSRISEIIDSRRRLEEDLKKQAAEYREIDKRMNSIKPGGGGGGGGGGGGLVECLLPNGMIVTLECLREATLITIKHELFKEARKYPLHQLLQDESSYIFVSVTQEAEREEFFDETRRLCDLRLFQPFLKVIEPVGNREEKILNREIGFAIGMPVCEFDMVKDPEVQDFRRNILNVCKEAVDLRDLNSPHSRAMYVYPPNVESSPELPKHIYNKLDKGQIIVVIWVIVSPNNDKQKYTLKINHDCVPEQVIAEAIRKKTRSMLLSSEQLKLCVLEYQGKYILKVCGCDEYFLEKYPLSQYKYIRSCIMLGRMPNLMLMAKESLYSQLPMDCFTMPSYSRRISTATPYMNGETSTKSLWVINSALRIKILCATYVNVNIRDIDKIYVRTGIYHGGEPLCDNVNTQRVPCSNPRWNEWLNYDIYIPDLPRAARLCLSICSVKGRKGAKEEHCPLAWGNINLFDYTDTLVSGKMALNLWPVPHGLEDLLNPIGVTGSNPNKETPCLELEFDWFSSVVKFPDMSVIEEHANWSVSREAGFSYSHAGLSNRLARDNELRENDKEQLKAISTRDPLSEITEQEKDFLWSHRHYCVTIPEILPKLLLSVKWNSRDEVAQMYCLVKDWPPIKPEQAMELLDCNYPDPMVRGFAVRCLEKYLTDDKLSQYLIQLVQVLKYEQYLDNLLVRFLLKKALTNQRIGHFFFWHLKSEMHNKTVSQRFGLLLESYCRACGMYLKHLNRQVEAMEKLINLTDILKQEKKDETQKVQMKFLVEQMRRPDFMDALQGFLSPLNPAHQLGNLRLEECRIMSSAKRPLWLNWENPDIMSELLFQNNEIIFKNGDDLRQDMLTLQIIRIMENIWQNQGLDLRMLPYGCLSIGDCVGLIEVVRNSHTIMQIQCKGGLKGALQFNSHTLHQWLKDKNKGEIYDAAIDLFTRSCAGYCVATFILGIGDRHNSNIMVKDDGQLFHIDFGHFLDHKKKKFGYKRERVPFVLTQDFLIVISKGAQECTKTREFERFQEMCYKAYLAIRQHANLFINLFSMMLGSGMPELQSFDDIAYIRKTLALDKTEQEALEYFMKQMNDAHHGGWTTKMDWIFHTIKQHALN

| SMILES | IC50 (PI3K beta) [nM] | IC50 (PI3K alfa) [nM] | IC50 (PI3K gamma) [nM] | IC50 (PI3K delta) [nM] |
| --- | --- | --- | --- | --- |
| COc1cc(-c2ccc3nc(C)c(-c4cnc(N)c(C(F)(F)F)c4)n3n2)ccc1OCCCN1CCNC1=O [Example 96, 1-(3-{4-[3-(6-Amino-5-trifluoromethyl-pyridin-3-yl)-2-methyl-imidazo[1,2-b]pyridazin-6-yl]-2-methoxy-phenoxy}-propyl)-imidazolidin-2-one] | 4860 | 31 | 805 | 424 |
| Cc1nc2ccc(-c3ccc4c(c3)OCO4)nn2c1-c1cnc(N)c(C(F)(F)F)c1 [Example 108, 5-(6-Benzo[1,3]dioxol-5-yl-2-methyl-imidazo[1,2-b]pyridazin-3-yl)-3-trifluoromethyl-pyridin-2-ylamine] | 7080 | 985 | 6790 | 2270 |
| COc1ccc(-c2ccc(-c3ccc4nc(C)c(-c5ccc(N6CCOCC6)nc5)n4n3)cc2)cc1 [Example 18, 6-(4′-Methoxy-biphenyl-4-yl)-2-methyl-3-(6-morpholin-4-yl-pyridin-3-yl)-imidazo[1,2-b]pyridazine] | 5160 | > 25000 | > 25000 | > 25000 |
| COc1cc(-c2ccc3nc(C)c(-c4cnc(N)c(C(F)(F)F)c4)n3n2)ccc1OCCNC(=O)c1cccnc1 [Example 31] | > 9100 | 38 | 4320 | 748 |
| COc1cc(-c2ccc3nc(C)c(-c4cnc(N)c(C(F)(F)F)c4)n3n2)ccc1OCCCN [Example 25, 5-{6-[4-(3-Amino-propoxy)-3-methoxy-phenyl]-2-methyl-imidazo[1,2-b]pyridazin-3-yl}-3-trifluoromethyl-pyridin-2-ylamine] | 193 | 15 | 507 | 24 |
| COc1cccc(NC(=O)NCCCOc2cc(-c3ccc4nc(C)c(-c5cnc(N)c(C(F)(F)F)c5)n4n3)ccc2OC)c1 [Example 89, 1-(3-{5-[3-(6-Amino-5-trifluoromethyl-pyridin-3-yl)-2-methyl-imidazo[1,2-b]pyridazin-6-yl]-2-methoxy-phenoxy}-propyl)-3-(3-methoxy-phenyl)-urea] | > 9100 | 1640 | 6860 | > 9100 |
| Cc1nc2ccc(-c3ccc(OCC4(NC(=O)OC(C)(C)C)COC4)cc3)nn2c1-c1cnc(N)c(C(F)(F)F)c1 [Example 113, (3-{4-[3-(6-Amino-5-trifluoromethyl-pyridin-3-yl)-2-methyl-imidazo[1,2-b]pyridazin-6-yl]-phenoxymethyl}-oxetan-3-yl)-carbamic acid tert-butyl ester] | > 9100 | 1010 | > 9100 | 5110 |
| COc1cc(-c2ccc3nc(C)c(-c4cnc(N)c(C(F)(F)F)c4)n3n2)ccc1OCCCN1CCCC1=O [Example 77] | 3790 | 75 | 1260 | 281 |
| COc1ccc(-c2ccc3nc(C)c(-c4ncccc4C)n3n2)cc1OC [Example 16, 6-(3,4-Dimethoxy-phenyl)-2-methyl-3-(3-methyl-pyridin-2-yl)-imidazo[1,2-b]pyridazine] | > 25000 | > 25000 | > 25000 | > 25000 |
| Cc1nc2ccc(-c3ccc(S(C)(=O)=O)cc3)nn2c1-c1cncc(C#N)c1 [Example 19, 5-[6-(4-Methanesulfonyl-phenyl)-2-methyl-imidazo[1,2-b]pyridazin-3-yl]-nicotinonitrile] | 12300 | 1290 | 5180 | 5500 |
| COc1ccc(-c2ccc3nc(C)c(-c4cncc(C#N)c4)n3n2)cc1OC [Example 6] | 4190 | 455 | 1850 | 2710 |
| COc1cc(-c2ccc3nc(C)c(-c4cnc(N)c(C(F)(F)F)c4)n3n2)ccc1OCCN(CC(=O)N(C)C)CC(=O)N(C)C [Example 103, 2-[(2-{4-[3-(6-Amino-5-trifluoromethyl-pyridin-3-yl)-2-methyl-imidazol[1,2-b]pyridazin-6-yl]-2-methoxy-phenoxy}-ethyl)-dimethylcarbamoylmethyl-amino]-N,N-dimethyl-acetamide] | 1830 | 15 | 662 | 362 |
| COc1cc(-c2ccc3nc(C)c(-c4cnc(N)c(C(F)(F)F)c4)n3n2)ccc1OCCN1CCNC1=O [Example 104, 1-(2-{4-[3-(6-Amino-5-trifluoromethyl-pyridin-3-yl)-2-methyl-imidazo[1,2-b]pyridazin-6-yl]-2-methoxy-phenoxy}-ethyl)-imidazolidin-2-one] | 2080 | 31 | 477 | 255 |
| COc1cc(-c2ccc3nc(C)c(-c4cnc(N)c(C(F)(F)F)c4)n3n2)ccc1OCCNC(=O)c1ccncc1 [Example 29] | > 9100 | 93 | 2740 | 1590 |
| CCS(=O)(=O)c1ccc(-c2c(C)nc3ccc(-c4ccc(OCCCN5CCCC5=O)cc4)nn23)cc1 [Example 107, 1-(3-{4-[3-(4-Ethanesulfonyl-phenyl)-2-methyl-imidazo[1,2-b]pyridazin-6-yl]-phenoxy}-propyl)-pyrrolidin-2-one] | > 9100 | 4690 | > 9100 | 2990 |
| COc1cc(-c2ccc3nc(C)c(-c4cnc(N)c(C(F)(F)F)c4)n3n2)ccc1OCCNC(=O)Nc1cccc(C#N)c1 [Example 47] | > 9100 | 1810 | 4500 | > 9100 |
| COc1ccc(-c2ccc3nc(C)c(-c4ccc(C#N)nc4)n3n2)cc1OC [Example 4] | 1210 | 44 | 345 | 152 |
| Cc1nc2ccc(-c3ccc(OCC4(NC(=O)C(C)C)COC4)cc3)nn2c1-c1cnc(N)c(C(F)(F)F)c1 [Example 114, N-(3-{4-[3-(6-Amino-5-trifluoromethyl-pyridin-3-yl)-2-methyl-innidazo[1,2-b]pyridazin-6-yl]-phenoxymethyl}-oxetan-3-yl)-isobutyramide] | 8730 | 49 | 1520 | 435 |
| COc1ccc(-c2ccc3nc(C)c(-c4ccc(O)nc4)n3n2)cc1OC [Example 8, 5-[6-(3,4-dimethoxy-phenyl)-2-methyl-imidazo[1,2-b]pyridazin-3-yl]-pyridin-2-ol] | 1170 | 42 | 303 | 456 |
| COc1ccc(C(=O)NCCOc2ccc(-c3ccc4nc(C)c(-c5cnc(N)c(C(F)(F)F)c5)n4n3)cc2OC)cc1OC [Example 37] | > 9100 | 233 | 2300 | > 9100 |
